Biological target: T1, Prostaglandin G/H synthase 2 (Homo sapiens, UniProt P35354)
T1 sequence (P35354 whole entry): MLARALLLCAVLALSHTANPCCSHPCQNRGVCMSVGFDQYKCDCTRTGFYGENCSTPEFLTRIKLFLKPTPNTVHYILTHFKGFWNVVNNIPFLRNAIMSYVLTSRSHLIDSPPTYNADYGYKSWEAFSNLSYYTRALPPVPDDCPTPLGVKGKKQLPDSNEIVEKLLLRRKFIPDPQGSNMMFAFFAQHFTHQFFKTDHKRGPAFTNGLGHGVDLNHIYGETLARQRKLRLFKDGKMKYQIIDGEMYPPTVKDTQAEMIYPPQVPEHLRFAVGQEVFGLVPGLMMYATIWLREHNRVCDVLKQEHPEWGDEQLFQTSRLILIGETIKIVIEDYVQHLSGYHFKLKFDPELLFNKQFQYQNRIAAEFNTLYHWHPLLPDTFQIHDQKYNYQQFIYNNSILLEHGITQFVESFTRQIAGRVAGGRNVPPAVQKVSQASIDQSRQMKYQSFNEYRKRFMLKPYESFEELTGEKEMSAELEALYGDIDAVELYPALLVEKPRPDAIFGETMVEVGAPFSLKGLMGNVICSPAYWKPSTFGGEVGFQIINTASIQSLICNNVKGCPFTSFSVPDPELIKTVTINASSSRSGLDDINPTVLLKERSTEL
Experiment: Inhibition of COX-2 (unknown origin) by Enzyme immune assay
Settings: not given

Row | IC50 | Compound
1 | 0.00564 µM | Cc1ccc(Cl)c(Nc2ccccc2C(=O)O)c1Cl [MECLOFENAMATE SODIUM]
2 | 0.0064 µM | COc1ccc2cc(C(C)C(=O)O/N=C(\N)c3ccc(Cl)cc3)ccc2c1 (stereo not given)
3 | 0.0064 µM | COc1ccc(/C(N)=N/OC(=O)C(C)c2ccc3cc(OC)ccc3c2)cc1 (stereo not given)
4 | 0.0064 µM | COc1ccc2cc(C(C)C(=O)ON=C(N)c3ccc4c(c3)OCO4)ccc2c1 (stereo not given)
5 | 0.0064 µM | COc1ccc2cc(C(C)C(=O)O/N=C(\N)c3ccc(OC)c(OC)c3)ccc2c1 (stereo not given)
6 | 0.00177 µM | COc1ccc2cc(C(C)C(=O)ON=C(N)c3ccc(-c4ccccc4)c(-c4ccccc4)c3)ccc2c1 (stereo not given)

Biological target: not listed separately
Experiment: Inhibition of soybean lipoxygenase
Design: species or system Glycine max
Settings: not given

Row | IC50 | Compound
7 | 124 µM | COc1ccc(-c2nnc(N/N=C/c3ccc(F)cc3)nc2-c2ccc(OC)cc2)cc1

Biological target: Prostaglandin G/H synthase 1 (Homo sapiens) (UniProt P23219)
Experiment: Inhibition of human COX-1 at 10 uM relative to control
Settings: not given

Sequence of Prostaglandin G/H synthase 1 (Homo sapiens) (P23219 whole entry): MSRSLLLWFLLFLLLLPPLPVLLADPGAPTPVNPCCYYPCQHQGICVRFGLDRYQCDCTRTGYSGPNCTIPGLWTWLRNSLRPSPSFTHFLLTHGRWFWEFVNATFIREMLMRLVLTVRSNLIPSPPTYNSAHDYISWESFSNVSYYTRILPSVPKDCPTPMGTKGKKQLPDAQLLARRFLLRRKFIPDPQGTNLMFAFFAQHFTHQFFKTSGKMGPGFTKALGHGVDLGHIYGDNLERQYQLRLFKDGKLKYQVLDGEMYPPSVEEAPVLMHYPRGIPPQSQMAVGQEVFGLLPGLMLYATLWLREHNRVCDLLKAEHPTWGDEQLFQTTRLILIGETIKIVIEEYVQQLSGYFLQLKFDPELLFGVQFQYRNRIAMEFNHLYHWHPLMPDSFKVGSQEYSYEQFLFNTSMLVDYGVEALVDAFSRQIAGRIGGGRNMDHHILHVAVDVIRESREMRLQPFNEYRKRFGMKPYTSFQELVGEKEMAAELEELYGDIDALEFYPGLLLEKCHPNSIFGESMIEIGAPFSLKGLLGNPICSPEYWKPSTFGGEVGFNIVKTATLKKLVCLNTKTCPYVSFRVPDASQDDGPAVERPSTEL

Row | inhibition | Compound
8 | 50% | COc1ccc(-c2nnc(N/N=C/c3ccc4c(c3)OCO4)nc2-c2ccc(OC)cc2)cc1

System: not listed separately
Experiment: Inhibition of soybean 15-LOX
Design: species or system Glycine max
Settings: not given

Row | IC50 | Compound
9 | 62.6 µM | CN1C(C(=O)Nc2ccccn2)=C(O)c2ccccc2S1(=O)=O [PIROXICAM]
10 | 6.52 µM | CC(=O)Nc1ccc(O)cc1 [ACETAMINOPHEN]
11 | 21.5 µM | Cc1ccc(OCc2nnc(SCC(=O)Nc3ccccc3)o2)cc1
12 | 15 µM | CC(c1cc2ccccc2s1)N(O)C(N)=O (stereo not given) [ZILEUTON]
13 | 3.52 µM | COc1ccc2cc([C@H](C)C(=O)O)ccc2c1 [NAPROXEN]
14 | 4.61 µM | O=C(Cc1ccccc1Nc1c(Cl)cccc1Cl)N/N=C1\C(=O)N(Cc2ccccc2)c2ccc(Cl)cc21
15 | 4.62 µM | CC(=O)Oc1ccccc1C(=O)O [ASPIRIN]
16 | ≤ 40 µM | CC(C)(C)Nc1c(-c2cc3ccccc3nc2Cl)nc2sccn12
17 | 49.5 µM | CN1C(C(=O)Nc2ccccn2)=C(O)c2sccc2S1(=O)=O [TENOXICAM]
18 | 24.8 µM | Cc1cccc(Nc2ccccc2C(=O)O)c1C [MEFENAMIC ACID]
19 | 24.8 µM | O=C(O)Cc1ccccc1Nc1c(Cl)cccc1Cl [DICLOFENAC]
20 | 24.8 µM | CC(C(=O)O)c1cccc(C(=O)c2ccccc2)c1 (stereo not given) [KETOPROFEN]
21 | 6.64 µM | O=C(Cc1ccccc1Nc1c(Cl)cccc1Cl)N/N=C1\C(=O)N(Cc2ccccc2)c2ccccc21
22 | 11 µM | O=C1N/C(=N\c2nnc(-c3ccc(O)cc3)s2)S/C1=C\c1ccccc1
23 | 22.5 µM | O=c1cc(-c2ccccc2)oc2cc(O)c(O)c(O)c12 [BAICALEIN]

Row | Compound | IC50
24 | O=c1c(O)c(-c2ccc(O)c(O)c2)oc2cc(O)cc(O)c12 [QUERCETIN] | 4.84 µM
25 | C=CCc1cc(NC(=O)C23CC4CC(CC(C4)C2)C3)ccc1OC(C)C | 1.35 µM

Biological target: T2, Seed linoleate 13S-lipoxygenase-1 (Glycine max, UniProt P08170)
T2 sequence (P08170 whole entry): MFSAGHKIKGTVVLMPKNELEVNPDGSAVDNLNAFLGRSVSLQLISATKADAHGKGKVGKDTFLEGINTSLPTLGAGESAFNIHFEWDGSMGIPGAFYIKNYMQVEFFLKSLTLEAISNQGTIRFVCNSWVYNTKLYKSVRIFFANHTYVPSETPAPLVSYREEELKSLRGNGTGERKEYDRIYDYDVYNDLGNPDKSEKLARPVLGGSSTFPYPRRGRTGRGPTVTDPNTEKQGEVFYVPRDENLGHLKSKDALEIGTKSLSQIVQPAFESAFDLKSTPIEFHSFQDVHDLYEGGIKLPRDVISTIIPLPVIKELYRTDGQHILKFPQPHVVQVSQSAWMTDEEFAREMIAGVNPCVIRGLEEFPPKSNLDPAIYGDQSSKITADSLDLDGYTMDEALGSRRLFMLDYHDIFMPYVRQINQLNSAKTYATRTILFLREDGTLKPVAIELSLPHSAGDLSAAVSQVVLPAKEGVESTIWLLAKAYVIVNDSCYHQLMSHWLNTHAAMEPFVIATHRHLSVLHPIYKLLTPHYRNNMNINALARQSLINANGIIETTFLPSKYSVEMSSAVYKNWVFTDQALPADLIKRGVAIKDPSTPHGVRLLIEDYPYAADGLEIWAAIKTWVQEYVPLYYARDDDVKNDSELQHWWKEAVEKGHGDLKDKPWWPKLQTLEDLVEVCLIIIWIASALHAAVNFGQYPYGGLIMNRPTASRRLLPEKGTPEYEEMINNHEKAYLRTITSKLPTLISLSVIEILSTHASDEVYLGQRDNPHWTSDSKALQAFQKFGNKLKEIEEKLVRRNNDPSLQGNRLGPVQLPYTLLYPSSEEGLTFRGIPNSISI
Experiment: Inhibition of soybean LOX-1 using linoleic acid as substrate
Settings: not given

Row | IC50 | Compound
26 | 0.68 µM | CC(=O)c1cc2ccc(OC/C=C(\C)CC/C=C(\C)CCC=C(C)C)cc2oc1=O

System: not listed separately
Experiment: Inhibition of soybean 15-LOX by spectrophotometric method
Design: species or system Glycine max
Settings: not given

Row | IC50 | Compound
27 | 0.12 µM | CCOC(=O)c1sc(N/N=C/c2c(F)cccc2Cl)nc1C
28 | 0.12 µM | CCOC(=O)c1sc(N/N=C/c2ccccc2)nc1C

System: A549
Experiment: Anticancer activity against human A549 cells assessed as reduction in cell viability measured for 72 hrs by MTT assay
Type: functional, cell-based
Settings: A549, 72 h

Row | IC50 | Compound
29 | 18.5 µM | CCn1c(-n2cc(/C=N/N=C3\SCC(=O)N3c3ccccc3)c(-c3ccccc3)n2)nc2c1c(=O)n(C)c(=O)n2C
30 | 18.5 µM | CCn1c(-n2cc(/C=N/N=c3\scc(-c4ccc(Br)cc4)n3-c3ccccc3)c(-c3ccccc3)n2)nc2c1c(=O)n(C)c(=O)n2C

System: Caco-2
Experiment: Antiproliferative activity against human Caco-2 cells assessed as reduction in cell growth incubated for 72 hrs by MTT assay
Type: functional, cell-based
Settings: Caco-2, 72 h

Row | IC50 | Compound
31 | 18.5 µM | CCn1c(-n2cc(/C=N/N=C3\SCC(=O)N3c3ccccc3)c(-c3ccccc3)n2)nc2c1c(=O)n(C)c(=O)n2C
32 | 18.5 µM | CCn1c(-n2cc(/C=N/N=c3\scc(-c4ccc(Br)cc4)n3-c3ccccc3)c(-c3ccccc3)n2)nc2c1c(=O)n(C)c(=O)n2C

System: PC-3
Experiment: Antiproliferative activity against human PC-3 cells assessed as reduction in cell growth incubated for 72 hrs by MTT assay
Type: functional, cell-based
Settings: PC-3, 72 h

Row | IC50 | Compound
33 | 18.5 µM | CCn1c(-n2cc(/C=N/N=C3\SCC(=O)N3c3ccccc3)c(-c3ccccc3)n2)nc2c1c(=O)n(C)c(=O)n2C
34 | 18.5 µM | CCn1c(-n2cc(/C=N/N=c3\scc(-c4ccc(Br)cc4)n3-c3ccccc3)c(-c3ccccc3)n2)nc2c1c(=O)n(C)c(=O)n2C

System: MCF7
Experiment: Antitumor activity against human MCF7 cells assessed as reduction in cell viability measured for 72 hrs by MTT assay
Type: functional, cell-based
Settings: MCF7, 72 h

Row | IC50 | Compound
35 | 18.5 µM | CCn1c(-n2cc(/C=N/N=C3\SCC(=O)N3c3ccccc3)c(-c3ccccc3)n2)nc2c1c(=O)n(C)c(=O)n2C
36 | 18.5 µM | CCn1c(-n2cc(/C=N/N=c3\scc(-c4ccc(Br)cc4)n3-c3ccccc3)c(-c3ccccc3)n2)nc2c1c(=O)n(C)c(=O)n2C

System: HepG2
Experiment: Anticancer activity against human HepG2 cells assessed as cell viability measured after 72 hrs by MTT assay
Type: functional, cell-based
Settings: HepG2, 72 h

Row | IC50 | Compound
37 | 18.5 µM | CCn1c(-n2cc(/C=N/N=C3\SCC(=O)N3c3ccccc3)c(-c3ccccc3)n2)nc2c1c(=O)n(C)c(=O)n2C
38 | 18.5 µM | CCn1c(-n2cc(/C=N/N=c3\scc(-c4ccc(Br)cc4)n3-c3ccccc3)c(-c3ccccc3)n2)nc2c1c(=O)n(C)c(=O)n2C

Biological target: T1, Prostaglandin G/H synthase 2
Experiment: Inhibition of COX-2 (unknown origin)
Settings: not given

Row | IC50 | Compound
39 | 0.07 µM | O=C1N/C(=N\c2nnc(-c3ccc(O)cc3)s2)S/C1=C\c1ccccc1

Biological target: T1, Prostaglandin G/H synthase 2
Experiment: Inhibition of human recombinant COX-2
Settings: not given

Row | IC50 | Compound
40 | 1.41 µM | COc1ccc(/C=C/C(=O)c2cc(-n3cc(CN4C(=O)C(=O)c5ccccc54)nn3)ccc2O)cc1
41 | 1.41 µM | O=C(/C=C/c1ccc(Br)cc1)c1cc(-n2cc(CN3C(=O)C(=O)c4ccccc43)nn2)ccc1O
42 | 1.41 µM | CN(C)c1ccc(/C=C/C(=O)c2cc(-n3cc(CN4C(=O)C(=O)c5ccccc54)nn3)ccc2O)cc1

System: Rattus norvegicus
Experiment: Anti-inflammatory activity against carrageenan-induced paw edema in Wistar albino rat assessed as inhibition of paw edema at 50 mg/kg, sc administered for 14 days relative to control
Type: functional
Design: scale not given: the % may be the effect or the level left
Settings: time 14 day

Row | Compound | Activity
43 | COc1ccnc(Nc2nn3c(C)cc(C)nc3c2C#N)c1 | 46%
44 | CCOc1cc(N)n2nc(Nc3cc(OC)ccn3)c(C#N)c2n1 | 46%
45 | CCOc1cc(C)nc2c(C#N)c(Nc3cc(OC)ccn3)nn12 | 46%

System: not listed separately
Experiment: Inhibition of soybean 15-LOX colorimetric assay
Design: species or system Glycine max
Settings: not given

Row | IC50 | Compound
46 | 8.5 µM | CC(Cc1ccc(O)c(O)c1)C(C)Cc1ccc(O)c(O)c1 (stereo not given) [NORDIHYDROGUAIARETIC ACID]
47 | 5.6 µM | COc1ccnc(Nc2nn3c(C)cc(C)nc3c2C#N)c1

System: not listed separately
Experiment: Inhibition of human recombinant sPLA2-V
Settings: not given

Row | IC50 | Compound
48 | 1.7 µM | CCOc1cc(C)nc2c(C#N)c(Nc3cc(OC)ccn3)nn12

System: not listed separately
Experiment: Inhibition of soybean 15-LOX by chemiluminescence based analysis
Design: species or system Glycine max
Settings: not given

Row | IC50 | Compound
49 | 7.15 µM | CCc1ccccc1NC(=O)CSc1nnc(C2CCN(C(=O)Nc3ccccc3)CC2)o1
50 | 26.1 µM | Cc1ccc(C)c(NC(=O)CSc2nnc(C3CCN(C(=O)Nc4ccccc4)CC3)o2)c1
51 | 26.1 µM | CCc1ccc(NC(=O)CSc2nnc(C3CCN(C(=O)Nc4ccccc4)CC3)o2)cc1
52 | 26.1 µM | Cc1ccc(NC(=O)CSc2nnc(C3CCN(C(=O)Nc4ccccc4)CC3)o2)c(C)c1
53 | 5.24 µM | COc1ccc(Cn2cc(COc3ccc(/C=C4\SC(=O)NC4=O)cc3)nn2)cc1
54 | 26.1 µM | Cc1cccc(NC(=O)CSc2nnc(C3CCN(C(=O)Nc4ccccc4)CC3)o2)c1
55 | 26.1 µM | Cc1cc(C)cc(NC(=O)CSc2nnc(C3CCN(C(=O)Nc4ccccc4)CC3)o2)c1
56 | 18.4 µM | Cc1cccc(C)c1NC(=O)CSc1nnc(C2CCN(C(=O)Nc3ccccc3)CC2)o1
57 | 9.32 µM | CCCNC(=O)CSc1nnc(C2CCN(C(=O)Nc3ccccc3)CC2)o1
58 | 26.1 µM | O=C(CSc1nnc(C2CCN(C(=O)Nc3ccccc3)CC2)o1)NC1CCCCC1
59 | 26.1 µM | Cc1ccc(NC(=O)CSc2nnc(C3CCN(C(=O)Nc4ccccc4)CC3)o2)cc1C
60 | 26.1 µM | O=C(CSc1nnc(C2CCN(C(=O)Nc3ccccc3)CC2)o1)Nc1ccccc1
61 | 15.8 µM | CCN(CC)C(=O)CSc1nnc(C2CCN(C(=O)Nc3ccccc3)CC2)o1

System: Mononuclear cell line
Experiment: Induction of apoptosis in human Mononuclear cell line assessed as early apoptosis at 10 uM incubated for 48 hrs by AnnexinV-FITC/PI staining based flow cytometry relative to control
Type: functional
Settings: not given

Row | Compound | Activity
62 | O=c1c(O)c(-c2ccc(O)c(O)c2)oc2cc(O)cc(O)c12 [QUERCETIN] | 4.26%
63 | Cc1ccc(NC(=O)CSc2nnc(C3CCN(C(=O)Nc4ccccc4)CC3)o2)c(C)c1 | 79.5%
64 | Cc1cc(C)cc(NC(=O)CSc2nnc(C3CCN(C(=O)Nc4ccccc4)CC3)o2)c1 | 79.5%
65 | CCN(CC)C(=O)CSc1nnc(C2CCN(C(=O)Nc3ccccc3)CC2)o1 | 79.5%

Reference: ChEMBL document CHEMBL5543066, “Dual COX-2/15-LOX inhibitors: A new avenue in the prevention of cancer” (Eur J Med Chem, 2023)
